Data as given in paper doi:10.1101/2023.02.27.530254, “Large library docking for cannabinoid-1 receptor agonists with reduced side effects” (bioRxiv, 2024).
Where “and” joins values, the source holds several entries; their conditions need not be identical. Equal entries are not always repeated. Where two headings read alike, the source gives them in different places.

Key:
[1] = Pharmacokinetics in plasma, brain and CSF; assay type: in vivo, CD-1 mice; details: 0.2 mg/kg i.p., mice; for half-life: in vivo
Description: The batches of working formulations were prepared 5–10 minutes prior to the in vivo study. […] There was also a one mouse control group. All animals were fasted for 4 h before dosing. Mice were injected i.p. with 2,2,2-tribromoethanol at the dose of 150 mg/kg prior to drawing CSF and blood. Blood collection was performed from the orbital sinus in microtainers containing K3EDTA. CSF was collected under a stereomicroscope from cisterna magna using 1 mL syringes. Animals were sacrificed by cervical dislocation after the blood samples collection. After this, right lobe brain samples were collected and weighted. All samples were immediately processed, flash-frozen and stored at −70°C until subsequent analysis.
Plasma samples (40 μL) were mixed with 200 μL of internal standard solution. After mixing by pipetting and centrifuging for 4 min at 6,000 rpm, supernatant was injected into LC-MS/MS system. […] After this, the samples were centrifuged for 4 min at 14,000 rpm, and supernatant was injected into LC-MS/MS system. CSF samples (4 μL) were mixed with 100 μL of IS(80) solution. After mixing by pipetting and centrifuging for 4 min at 6,000 rpm, 1–6 μL of each supernatant was injected into LC-MS/MS system.
Analyses of plasma, brain and CSF samples were conducted at Enamine/Bienta. The concentrations of compounds in samples were determined using high performance liquid chromatography/tandem mass spectrometry (HPLC-MS/MS) method. Data acquisition and system control was performed using Analyst 1.6.3 software (AB Sciex, Canada). The concentrations of the test compound below the lower limit of quantitation (LLOQ: 2–5 ng/mL for plasma and CSF, 1–5 ng/g for brain) were designated as zero. The pharmacokinetic data analysis was performed using noncompartmental, bolus injection or extravascular input analysis models in WinNonlin 5.2 (PharSight). Data below LLOQ were presented as missing to improve validity of T½ calculations.

[2] = test system: C56BL/6 mice; experiment: Open field test of hypolocomotion; assay type: in vivo, mouse; details: for motor effect versus vehicle at analgesic doses: open field and rotarod tests
Description: Thirty minutes after i.p. injection, mice were placed in the center of a round open-field (2 feet diameter) and their exploratory behavior recorded over the next 15 minutes. Distance traveled was used to represent open field behavior.

[3] = target: T1, hCB1 (Homo sapiens, UniProt P21554); experiment: Lance Ultra cAMP accumulation assay (inhibition of forskolin-stimulated cAMP), CHO cells; assay type: cell-based; set-up: expressed in transfected cells; details: for Emax: CHO, read-out: hCB1 Lance Ultra cAMP Emax [95% CI]
Description: The inhibition of forskolin-stimulated cAMP accumulation assays was carried out using PerkinElmer’s Lance Ultra cAMP kit following the manufacturer’s protocol. In brief, CHO cells stably expressing human CB1R were harvested by incubation with Versene (ThermoFisher Scientific, Waltham, MA) for 10 min, washed once with Hank’s Balanced Salt Solution, and resuspended in stimulation buffer at ~200 cells/μL density. The ligands at eight different concentrations (0.001–10,000 nM) in stimulation buffer (5 μL) containing forskolin (2 μM final concentration) were added to a 384-well plate followed by the cell suspension (5 μL; ~1000 cells/well). The plate was incubated for 30 min at room temperature. Eu-cAMP tracer (5 μL) and Ulight-anti-cAMP (5 μL) working solutions were then added to each well, and the plate was incubated at room temperature for an additional 60 min. Results were measured on a Perkin-Elmer EnVision plate reader. The EC50 values were determined by nonlinear regression analysis using Prism software (GraphPad Software, Inc., San Diego, CA) and are expressed as the mean of three experiments, each performed in triplicate.

[4] = target: hCB2 (Homo sapiens, UniProt P34972); experiment: Tango β-arrestin-2 recruitment assay, HTLA cells; assay type: cell-based; set-up: expressed in transfected cells; host or cells: HTLA (transient); details: for Emax: HTLA, read-out: hCB2 Tango ß-arrestin recruitment Emax [95% CI]
Description: (§1) The Tango β-arrestin-2 recruitment assays were performed as described. In brief, HTLA cells were transiently transfected with human CB1R or CB2R Tango DNA construct overnight in DMEM supplemented with 10 % FBS, 100 μg ml−1 streptomycin and 100 U ml−1 penicillin. The transfected cells were then plated into poly-L-lysine-coated 384-well white clear-bottom cell culture plates in DMEM containing 1% dialysed FBS at a density of 10,000–15,000 cells per well. After incubation for 6 h, the plates were added with drug solutions prepared in DMEM containing 1% dialysed FBS for overnight incubation. On the day of assay, medium and drug solutions were removed and 20 μl per well of BrightGlo reagent (Promega) was added. The plates were further incubated for 20 min at room temperature and counted using the Wallac TriLux Microbeta counter (PerkinElmer). The results were analysed using GraphPad Prism 9.1. Each experiment was performed in triplicate and functional […] values were determined from the mean of three independent experiments.

[5] = target: T1, hCB1; experiment: Tango β-arrestin-2 recruitment assay, HTLA cells; assay type: cell-based; set-up: expressed in transfected cells; details: for Emax: HTLA, read-out: hCB1 Tango ß-arrestin recruitment Emax [95% CI]
Description: as §1

[6] = test system: C56BL/6 mice; experiment: Conditioned place preference; details: mouse, in vivo
Description: To determine if ‘4042 was inherently rewarding or aversive we used the conditioned place paradigm as described. Briefly, mice were first habituated to the test apparatus, twice, and their preference for each chamber recorded for 30 minutes (Pretest). Two conditioning days followed in which mice received the vehicle control or the compound, and 30 minutes later restricted for 30 minutes in the preferred or non-preferred chamber, respectively. On day 5 (Test day), mice were allowed to roam freely between the 3 chambers of the apparatus and their preference for each chamber recorded for 30 minutes. To calculate the CPP score, we subtracted the time spent in each chamber of the box on the Pretest day from that of the Test day (CPP score = Test - Pretest).

[7] = test system: C56BL/6 mice; experiment: Acetone test of cold allodynia after SNI; assay type: in vivo, mouse; details: for effect on SNI-induced cold allodynia (number of paw withdrawals): acetone test
Description: Under isoflurane anesthesia, two of the three branches of the sciatic nerve were ligated and transected distally, leaving the sural nerve intact. Behavior was tested 7 to 14 days after injury.
Mice were placed on a wire mesh and thirty min after an i.p. injection of the compounds we applied a drop (50 μL) of acetone on the ventral aspect of the hindpaw, 5 times every 30 sec. We recorded the number of nocifensive behaviors (paw lifts/licks/shakes/bites) over the 5 applications.

[8] = target: T2, CB1 (Rattus norvegicus, UniProt P20272); experiment: Radioligand competition binding with [3H]-CP-55,940, rat brain membranes; details: for Emax: maximal radioligand displacement, read-out: rCB1 binding Emax [SEM]; for Ki: [3H]-CP-55,940 competition, rat brain membranes; for LE: ligand efficiency; for LLE: lipophilic ligand efficiency
T2 construct: membrane preparations from rat brain (source of CB1); tissue Bioivt RAT00BRAINMZN; host or cells: rat brain
Description: The results were analyzed using nonlinear regression to determine the IC50 and Ki values for each ligand (Prism by GraphPad Software, Inc., San Diego, CA). The Ki values are expressed as the mean of two to three experiments each performed in triplicate.

T1 sequence (P21554 whole entry): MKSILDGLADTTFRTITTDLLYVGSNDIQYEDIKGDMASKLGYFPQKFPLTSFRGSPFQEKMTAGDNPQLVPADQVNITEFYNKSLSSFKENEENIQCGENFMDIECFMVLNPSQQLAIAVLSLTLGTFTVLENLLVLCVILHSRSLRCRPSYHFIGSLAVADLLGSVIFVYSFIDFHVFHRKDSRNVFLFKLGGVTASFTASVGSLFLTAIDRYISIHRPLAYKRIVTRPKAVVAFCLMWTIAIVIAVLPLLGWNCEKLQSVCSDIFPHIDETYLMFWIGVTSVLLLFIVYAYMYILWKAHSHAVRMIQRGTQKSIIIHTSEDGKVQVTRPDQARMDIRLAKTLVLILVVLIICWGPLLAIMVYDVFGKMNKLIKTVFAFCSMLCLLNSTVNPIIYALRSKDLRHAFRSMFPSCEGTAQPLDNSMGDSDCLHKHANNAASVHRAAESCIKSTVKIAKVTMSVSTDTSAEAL
Chain of hCB2 (P34972 whole entry): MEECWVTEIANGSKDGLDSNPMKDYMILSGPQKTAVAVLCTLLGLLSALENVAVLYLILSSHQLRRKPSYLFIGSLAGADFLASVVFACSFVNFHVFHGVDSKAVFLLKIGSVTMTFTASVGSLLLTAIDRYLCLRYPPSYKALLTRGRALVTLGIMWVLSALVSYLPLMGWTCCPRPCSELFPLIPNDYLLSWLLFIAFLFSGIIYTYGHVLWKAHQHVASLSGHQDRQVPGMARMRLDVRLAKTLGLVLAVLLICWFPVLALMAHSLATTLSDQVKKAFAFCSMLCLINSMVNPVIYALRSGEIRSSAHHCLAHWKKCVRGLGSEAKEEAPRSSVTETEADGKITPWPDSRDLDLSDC
T2 sequence (P20272 whole entry): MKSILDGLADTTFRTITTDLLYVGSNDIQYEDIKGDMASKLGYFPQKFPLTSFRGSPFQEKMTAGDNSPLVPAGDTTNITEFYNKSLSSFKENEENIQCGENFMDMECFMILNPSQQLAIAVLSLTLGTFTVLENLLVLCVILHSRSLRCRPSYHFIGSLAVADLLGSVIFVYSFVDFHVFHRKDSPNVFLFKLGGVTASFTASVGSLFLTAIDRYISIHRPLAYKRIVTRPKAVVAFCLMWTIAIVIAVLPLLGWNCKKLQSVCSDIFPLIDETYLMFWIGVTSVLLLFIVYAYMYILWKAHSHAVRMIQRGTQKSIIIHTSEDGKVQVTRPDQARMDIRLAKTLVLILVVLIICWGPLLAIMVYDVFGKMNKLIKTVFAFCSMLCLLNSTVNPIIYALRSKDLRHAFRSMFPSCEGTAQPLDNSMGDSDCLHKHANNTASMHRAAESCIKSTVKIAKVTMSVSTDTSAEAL

Compound	Cmax brain [1]	half-life ([1]; male, CD-1, mouse, ip)	motor effect versus vehicle at analgesic doses [2]	Emax [3]	Emax [4]	Emax [5]	conditioned place preference [6]	effect on SNI-induced cold allodynia (number of paw withdrawals) [7]	EC50 [3]	Emax [8]	Ki ([8]; rCB1 binding Ki [95% CI])	Ki ([8]; rCB1 binding pKi [95% CI])	EC50 [4]	EC50 [5]	LE [8]	LLE [8]	further results
CCCCCCC(C)(C)c1ccc([C@@H]2C[C@H](O)CC[C@H]2CCCO)c(O)c1 [CP-55,940, reference compound]	19.2 ng/g	2.12 h	caused motor impairment in both the rotarod and open field tests	85%	100%	100%	may actually induce some aversion	strongly reduced	–	–	–	–	–	–	–	–	plasma Cmax increase compared to ‘4042 [1]: ~10 fold
COC(=O)[C@@](C)(NC(=O)c1cc(C)n(-c2cccc(C(F)(F)F)c2)n1)c1cccs1 [‘1350]	–	–	–	77%	–	–	–	strongly reduced	1.6 nM	106%	0.95 nM	1 nM	–	–	–	–	dose showing locomotor deficits ([2]; open field test): 0.2 mg/kg; hCB1 Lance Ultra cAMP Emax [95% CI] [3]: 78%; dose with significant anti-allodynia ([7]; acetone test for cold pain): 0.05 mg/kg
COC(=O)C(C)(NC(=O)c1cc(C)n(-c2cccc(C(F)(F)F)c2)n1)c1cccs1 (stereo not drawn) [‘4042]	16.8 ng/g	1.9 h	no significant differences	78%	28%	102%	does not induce preference	strongly reduced	3.3 nM	99%	1.9 nM and 1.86 nM	–	33.9 nM	10.7 nM	0.41	4.6	compartments in which compound was found [1]: appreciably in brain and plasma, but not CSF compartments; AUC(0-inf) ([1]; male, CD-1, mouse, brain, ip, read-out: AUC0→inf brain tissue (converted)): 53 ng·h/mL; Cmax ([1]; male, CD-1, mouse, plasma, ip): 5.14 ng/mL and 12 nM; AUC(0-inf) ([1]; male, CD-1, mouse, plasma, ip, read-out: AUC0→inf plasma (converted)): 22.5 ng·h/mL
COC(=O)C(NC(=O)c1cc(C)n(-c2cccc(C(F)(F)F)c2)n1)c1cccs1 (stereo not drawn) [‘60154]	–	–	–	67%	21%	39%	–	–	316 nM	110%	44.3 nM	39.8 nM	3340 nM	794 nM	0.36	3.5	–
